Data reported in PubChem BioAssay AID250 (DTP/NCI, 2004).
Where “and” joins values, the source holds several entries; their conditions need not be identical. Identical values can stand only once. Inconclusive results and toxic doses are left out.

Test system: BDF1 mice, L1210 leukemia sc, survival T/C
Assay: NCI In Vivo Anticancer Drug Screen. Data for tumor model L1210 Leukemia (subcutaneous) in B6D2F1 (BDF1) mice
Settings: higher = longer survival
How it was run: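 Expressed as T/C: measurement in compound-treated, tumor-bearing mice relative to vehicle-treated control mice, based on survival or tumor size.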

What does the source list for `O=c1[nH]cc(F)c(=O)[nH]1`?
T/C (endpoint: mean survival time, dose: 65.0 mg/kg/injection, schedule: Q07DX009 (sc), vehicle: saline): 112 % of control; T/C (endpoint: mean survival time, dose: 108.0 mg/kg/injection, schedule: Q07DX009 (sc), vehicle: saline): 99 % of control; T/C (endpoint: mean survival time, dose: 180.0 mg/kg/injection, schedule: Q07DX009 (sc), vehicle: saline): 113 % of control; T/C (endpoint: mean survival time, dose: 300.0 mg/kg/injection, schedule: Q07DX009 (sc), vehicle: saline): 162 % of control; T/C (endpoint: median survival time, dose: 2.5 mg/kg/injection, schedule: Q01DX009 (ip), vehicle: saline): 93 % of control and 100 % of control; T/C (endpoint: median survival time, dose: 3.0 mg/kg/injection, schedule: Q01DX Z (sc), vehicle: saline): 104 % of control; T/C (endpoint: median survival time, dose: 3.02 mg/kg/injection, schedule: Q01DX Z (sc), vehicle: saline): 100 % of control; T/C (endpoint: median survival time, dose: 4.0 mg/kg/injection, schedule: Q01DX Z (sc), vehicle: saline): 105 % of control; T/C (endpoint: median survival time, dose: 5.0 mg/kg/injection, schedule: Q01DX009 (ip), vehicle: saline): 94 % of control and 100 % of control and 102 % of control; T/C (endpoint: median survival time, dose: 5.0 mg/kg/injection, schedule: Q01DX009 (sc), vehicle: saline): 103 % of control; T/C (endpoint: median survival time, dose: 5.0 mg/kg/injection, schedule: Q01DX Z (sc), vehicle: saline): 108 % of control; T/C (endpoint: median survival time, dose: 5.04 mg/kg/injection, schedule: Q01DX Z (sc), vehicle: saline): 100 % of control; T/C (endpoint: median survival time, dose: 8.4 mg/kg/injection, schedule: Q01DX009 (ip), vehicle: saline): 110 % of control; T/C (endpoint: median survival time, dose: 8.4 mg/kg/injection, schedule: Q01DX009 (sc), vehicle: saline): 114 % of control; T/C (endpoint: median survival time, dose: 8.4 mg/kg/injection, schedule: Q01DX013 (sc), vehicle: saline): 111 % of control; T/C (endpoint: median survival time, dose: 8.4 mg/kg/injection, schedule: Q01DX Z (sc), vehicle: saline): 105 % of control and 108 % of control and 116 % of control; T/C (endpoint: median survival time, dose: 10.0 mg/kg/injection, schedule: Q01DX009 (ip), vehicle: saline): 103 % of control and 109 % of control; T/C (endpoint: median survival time, dose: 14.0 mg/kg/injection, schedule: Q01DX009 (ip), vehicle: saline): 121 % of control; T/C (endpoint: median survival time, dose: 14.0 mg/kg/injection, schedule: Q01DX013 (sc), vehicle: saline): 150 % of control; T/C (endpoint: median survival time, dose: 14.0 mg/kg/injection, schedule: Q04DX003 (ip), vehicle: saline): 100 % of control; T/C (endpoint: median survival time, dose: 14.0 mg/kg/injection, schedule: Q04DX003 (sc), vehicle: saline): 103 % of control; T/C (endpoint: median survival time, dose: 16.0 mg/kg/injection, schedule: Q01DX Z (sc), vehicle: saline): 122 % of control; T/C (endpoint: median survival time, dose: 23.0 mg/kg/injection, schedule: Q01DX009 (sc), vehicle: saline): 154 % of control; T/C (endpoint: median survival time, dose: 23.0 mg/kg/injection, schedule: Q01DX013 (sc), vehicle: saline): 161 % of control and 163 % of control; T/C (endpoint: median survival time, dose: 23.0 mg/kg/injection, schedule: Q04DX003 (ip), vehicle: saline): 107 % of control; T/C (endpoint: median survival time, dose: 23.0 mg/kg/injection, schedule: Q04DX003 (sc), vehicle: saline): 102 % of control; T/C (endpoint: median survival time, dose: 23.3 mg/kg/injection, schedule: Q01DX Z (sc), vehicle: saline): 108 % of control; T/C (endpoint: median survival time, dose: 38.9 mg/kg/injection, schedule: Q01DX Z (sc), vehicle: saline): 100 % of control; T/C (endpoint: median survival time, dose: 39.0 mg/kg/injection, schedule: Q01DX009 (ip), vehicle: saline): 109 % of control; T/C (endpoint: median survival time, dose: 39.0 mg/kg/injection, schedule: Q01DX009 (sc), vehicle: saline): 121 % of control; T/C (endpoint: median survival time, dose: 39.0 mg/kg/injection, schedule: Q01DX013 (sc), vehicle: saline): 166 % of control and 167 % of control; T/C (endpoint: median survival time, dose: 39.0 mg/kg/injection, schedule: Q01DX Z (sc), vehicle: saline): 163 % of control and 175 % of control; T/C (endpoint: median survival time, dose: 64.0 mg/kg/injection, schedule: Q01DX Z (sc), vehicle: saline): 161 % of control; T/C (endpoint: median survival time, dose: 65.0 mg/kg/injection, schedule: Q01DX009 (ip), vehicle: saline): 101 % of control; T/C (endpoint: median survival time, dose: 65.0 mg/kg/injection, schedule: Q01DX009 (sc), vehicle: saline): 107 % of control; T/C (endpoint: median survival time, dose: 65.0 mg/kg/injection, schedule: Q04DX003 (sc), vehicle: saline): 151 % of control; T/C (endpoint: median survival time, dose: 65.0 mg/kg/injection, schedule: Q07DX009 (sc), vehicle: saline): 114 % of control; T/C (endpoint: median survival time, dose: 65.0 mg/kg/injection, schedule: Q07DX Z (sc), vehicle: saline): 115 % of control; T/C (endpoint: median survival time, dose: 108.0 mg/kg/injection, schedule: Q01DX Z (sc), vehicle: saline): 91 % of control; T/C (endpoint: median survival time, dose: 108.0 mg/kg/injection, schedule: Q04DX003 (ip), vehicle: saline): 173 % of control; T/C (endpoint: median survival time, dose: 108.0 mg/kg/injection, schedule: Q04DX003 (sc), vehicle: saline): 187 % of control; T/C (endpoint: median survival time, dose: 108.0 mg/kg/injection, schedule: Q07DX009 (sc), vehicle: saline): 102 % of control; T/C (endpoint: median survival time, dose: 108.0 mg/kg/injection, schedule: Q07DX Z (sc), vehicle: saline): 105 % of control; T/C (endpoint: median survival time, dose: 128.0 mg/kg/injection, schedule: Q01DX Z (sc), vehicle: saline): 155 % of control; T/C (endpoint: median survival time, dose: 180.0 mg/kg/injection, schedule: Q01DX Z (sc), vehicle: saline): 120 % of control; T/C (endpoint: median survival time, dose: 180.0 mg/kg/injection, schedule: Q04DX003 (ip), vehicle: saline): 121 % of control; T/C (endpoint: median survival time, dose: 180.0 mg/kg/injection, schedule: Q04DX003 (sc), vehicle: saline): 184 % of control; T/C (endpoint: median survival time, dose: 180.0 mg/kg/injection, schedule: Q07DX009 (sc), vehicle: saline): 114 % of control; T/C (endpoint: median survival time, dose: 180.0 mg/kg/injection, schedule: Q07DX Z (sc), vehicle: saline): 115 % of control; T/C (endpoint: median survival time, dose: 300.0 mg/kg/injection, schedule: Q07DX009 (sc), vehicle: saline): 169 % of control; T/C (endpoint: median survival time, dose: 300.0 mg/kg/injection, schedule: Q07DX Z (sc), vehicle: saline): 168 % of control

For `O=C(Nc1ccc(C2=NCCN2)cc1)c1ccc(NC(=O)c2ccc(C3=NCCN3)cc2)cc1`, which T/C (endpoint: median survival time, dose: 39.0 mg/kg/injection, schedule: Q01DX Z (sc), vehicle: methylcellulose (MC)) is on record?
Its T/C is 95 % of control.

What about the T/C (endpoint: median survival time, dose: 180.0 mg/kg/injection, schedule: Q01DX Z (sc), vehicle: methylcellulose (MC)) of the same molecule?
Its T/C is 115 % of control.

And the T/C (endpoint: median survival time, dose: 300.0 mg/kg/injection, schedule: Q01DX Z (sc), vehicle: methylcellulose (MC))?
The T/C was 110 % of control.

How did the T/C (endpoint: median survival time, dose: 0.65 mg/kg/injection, schedule: Q01DX Z (sc), vehicle: carboxymethylcellulose (CMC)) turn out when `CC[C@@]1(O)C(=O)OCc2c1cc1n(c2=O)Cc2cc3ccccc3nc2-1` was run?
The T/C was 100 % of control.

What about the T/C (endpoint: median survival time, dose: 1.08 mg/kg/injection, schedule: Q01DX Z (sc), vehicle: carboxymethylcellulose (CMC)) of the same molecule?
Its T/C is 100 % of control.

What about the T/C (endpoint: median survival time, dose: 1.8 mg/kg/injection, schedule: Q01DX Z (sc), vehicle: carboxymethylcellulose (CMC)) of the same molecule?
Its T/C is 122 % of control.

What about the T/C (endpoint: median survival time, dose: 3.0 mg/kg/injection, schedule: Q01DX Z (sc), vehicle: carboxymethylcellulose (CMC)) of the same molecule?
Its T/C is 118 % of control.

With `CC(=O)NC(CS)C(=O)O` (centres undefined) as the molecule, how does the T/C (endpoint: median survival time, dose: 600.0 mg/kg/injection, schedule: Q01DX001 (ip), vehicle: saline) read?
The T/C was 94 % of control and 97 % of control.

What about the T/C (endpoint: median survival time, dose: 600.0 mg/kg/injection, schedule: Q01DX015 (ip), vehicle: saline) of the same molecule?
Its T/C is 94 % of control and 97 % of control.

And the T/C (endpoint: median survival time, dose: 600.0 mg/kg/injection, schedule: Q07DX003 (ip), vehicle: saline)?
Its T/C is 94 % of control and 97 % of control.

What about the T/C (endpoint: median survival time, dose: 1000.0 mg/kg/injection, schedule: Q01DX001 (ip), vehicle: saline) of the same molecule?
Its T/C is 94 % of control and 96 % of control.

What about the T/C (endpoint: median survival time, dose: 1000.0 mg/kg/injection, schedule: Q01DX015 (ip), vehicle: saline) of the same molecule?
Its T/C is 103 % of control and 105 % of control.

And the T/C (endpoint: median survival time, dose: 1000.0 mg/kg/injection, schedule: Q07DX003 (ip), vehicle: saline)?
Its T/C is 99 % of control and 100 % of control.
